Measurements taken from patent US10463670B2, “Use of non-peptide NK1 antagonists in a predetermined dose for the treatment of cancer” (SERVICIO ANDALUZ DE SALUD, priority 2013, dated 2019).

Key:
Human breast cancer MT-3 = experiment: MTS cell proliferation, nanomolar antagonist, MT-3; type: cell-based; conditions: Aprepitant 1, 5 and 7 nM, vs cells grown in the absence of antagonist, time dependant
Description: Cell cultures of various commercial tumour cell lines stated in table 13 were used. [table] […] The number of cells was quantified using a Coulter counter. […] The culture plates were grown in the presence of increasing concentrations of non-peptide NK1 receptor antagonists. To obtain the staining in the proliferation assays, 20 μl of MTS were added to each one of the wells of the cell culture plates 90 minutes before reading the samples in a multiscan spectrophotometer (TECAN Spectra classic, Barcelona, Spain) at 492 nm (assay wavelength) and 690 nm (reference wavelength). The different doses were tested in duplicate and each experiment was performed in triplicate. The antagonist Aprepitant was used at the following concentrations: 1 nanomolar -nM-, 5 nanomolar -nM- and 7 nanomolar -nM-. […] As proliferation control, the cells were grown in the absence of said antagonist. This is expressed in FIGS. 1 to 10.

[1] = tested on: human lymphoma; reference BC-1; experiment: Lymphoma BC-1 tumours implanted s.c. in nude mice, Aprepitant alone; type: in vivo
Description: (§1) Immunocompromised female mice, 5-6 weeks of age were used, nu/nu Balb/c nude mice, provided by Harlan Iberica Barcelona (Spain). They were kept at 24° C. and in sterile conditions with food and water “ad libitum”. They were injected with 2×10^7 tumour cells, corresponding to cancer (human lung cancer, reference HCC-44 supplied by DSMZ) in 200 μl of PBS subcutaneous route. The tumour size was measured and the mice were evaluated for their state of health and weight daily. The mice were randomized in nine groups when the tumours reached a volume of 75 mm^3. One of the groups was treated with 200 μl of placebo (control group) and the eight remaining groups with doses of 10 (group 1), 20 (group 2), 30 (group 3), 40 (group 4), 50 (group 5), 60 (group 6), 70 (group 7) and 80 (group 8) mg per kilogram of weight and day of the NK1 receptor antagonist Aprepitant. 3 animals were treated per group, during 28 days. All the mice were sacrificed at the end of the experiment.
Immunocompromised female mice, 5-6 weeks of age were used, in the same conditions as explained in example 1. They were injected with 2×10^7 tumour cells, corresponding to a haematological cell line tumour (human lymphoma; reference BC-1; supplied by DSMZ) in 200 μl of PBS by subcutaneous route. The tumour size was measured and the mice were evaluated for their state of health and weight daily. The mice were randomized in nine groups when the tumours reached a volume of 75 mm^3. One of the groups was treated with 200 μl of placebo (control group) and the eight remaining groups with doses of 10 (group 1), 20 (group 2), 30 (group 3), 40 (group 4), 50 (group 5), 60 (group 6), 70 (group 7) and 80 (group 8) mg per kilogram of weight and day of the NK1 receptor antagonist Aprepitant. 3 animals were treated per group, during 28 days. All the mice were sacrificed at the end of the experiment.

[2] = tested on: human glioma; reference GAMG; experiment: Glioma GAMG tumours implanted s.c. in nude mice, Aprepitant alone; type: in vivo
Description: as §1
Immunocompromised female mice, 5-6 weeks of age were used, in the same conditions as explained in example 1. They were injected with 2×10^7 tumour cells, corresponding to a glial cell line tumour of the central nervous system human (human glioma; reference GAMG; supplied by DSMZ) in 200 μl of PBS by subcutaneous route. The tumour size was measured and the mice were evaluated for their state of health and weight daily. The mice were randomized in nine groups when the tumours reached a volume of 75 mm^3. One of the groups was treated with 200 μl of placebo (control group) and the eight remaining groups with doses of 10 (group 1), 20 (group 2), 30 (group 3), 40 (group 4), 50 (group 5), 60 (group 6), 70 (group 7) and 80 (group 8) mg per kilogram of weight and day of the NK1 receptor antagonist Aprepitant. 3 animals were treated per group, during 28 days. All the mice were sacrificed at the end of the experiment.

[3] = Aprepitant 10 mg/kg/day, 7 days
[4] = Aprepitant 10 mg/kg/day, 14 days
[5] = Aprepitant 10 mg/kg/day, 21 days
[6] = Aprepitant 10 mg/kg/day, 28 days
[7] = Aprepitant 20 mg/kg/day, 7 days
[8] = Aprepitant 20 mg/kg/day, 14 days
[9] = Aprepitant 20 mg/kg/day, 21 days
[10] = Aprepitant 20 mg/kg/day, 28 days
[11] = Aprepitant 30 mg/kg/day, 7 days
[12] = Aprepitant 30 mg/kg/day, 14 days
[13] = Aprepitant 30 mg/kg/day, 21 days
[14] = Aprepitant 30 mg/kg/day, 28 days
[15] = Aprepitant 40 mg/kg/day, 7 days
[16] = Aprepitant 40 mg/kg/day, 14 days
[17] = Aprepitant 40 mg/kg/day, 21 days
[18] = Aprepitant 40 mg/kg/day, 28 days
[19] = Aprepitant 50 mg/kg/day, 7 days
[20] = Aprepitant 50 mg/kg/day, 14 days
[21] = Aprepitant 50 mg/kg/day, 21 days
[22] = Aprepitant 50 mg/kg/day, 28 days
[23] = Aprepitant 60 mg/kg/day, 7 days
[24] = Aprepitant 60 mg/kg/day, 14 days
[25] = Aprepitant 60 mg/kg/day, 21 days
[26] = Aprepitant 60 mg/kg/day, 28 days
[27] = Aprepitant 70 mg/kg/day, 7 days
[28] = Aprepitant 70 mg/kg/day, 14 days
[29] = Aprepitant 70 mg/kg/day, 21 days
[30] = Aprepitant 70 mg/kg/day, 28 days
[31] = Aprepitant 80 mg/kg/day, 7 days
[32] = Aprepitant 80 mg/kg/day, 14 days
[33] = Aprepitant 80 mg/kg/day, 21 days
[34] = Aprepitant 80 mg/kg/day, 28 days

Structure (SMILES): C[C@@H](O[C@H]1OCCN(Cc2n[nH]c(=O)[nH]2)[C@H]1c1ccc(F)cc1)c1cc(C(F)(F)F)cc(C(F)(F)F)c1 [Aprepitant]
- Proliferation of tumour cells (MTS) (Human breast cancer MT-3): increase was observed of proliferation
- Tumour size (mean volume of the tumour) [1, 3]: 210 ± 3 cubic millimeters
- Tumour size (mean volume of the tumour) [1, 4]: 195 ± 6 cubic millimeters
- Tumour size (mean volume of the tumour) [1, 5]: 175 ± 7 cubic millimeters
- Tumour size (mean volume of the tumour) [1, 6]: 170 ± 6 cubic millimeters
- Tumour size (mean volume of the tumour) [1, 7]: 195 ± 6 cubic millimeters
- Tumour size (mean volume of the tumour) [1, 8]: 175 ± 7 cubic millimeters
- Tumour size (mean volume of the tumour) [1, 9]: 160 ± 6 cubic millimeters
- Tumour size (mean volume of the tumour) [1, 10]: 150 ± 7 cubic millimeters
- Tumour size (mean volume of the tumour) [1, 11]: 180 ± 7 cubic millimeters
- Tumour size (mean volume of the tumour) [1, 12]: 155 ± 4 cubic millimeters
- Tumour size (mean volume of the tumour) [1, 13]: 145 ± 8 cubic millimeters
- Tumour size (mean volume of the tumour) [1, 14]: 140 ± 4 cubic millimeters
- Tumour size (mean volume of the tumour) [1, 15]: 165 ± 8 cubic millimeters
- Tumour size (mean volume of the tumour) [1, 16]: 165 ± 6 cubic millimeters
- Tumour size (mean volume of the tumour) [1, 17]: 130 ± 5 cubic millimeters
- Tumour size (mean volume of the tumour) [1, 18]: 110 ± 6 cubic millimeters
- Tumour size (mean volume of the tumour) [1, 19]: 150 ± 5 cubic millimeters
- Tumour size (mean volume of the tumour) [1, 20]: 145 ± 7 cubic millimeters
- Tumour size (mean volume of the tumour) [1, 21]: 120 ± 6 cubic millimeters
- Tumour size (mean volume of the tumour) [1, 22]: 100 ± 7 cubic millimeters
- Tumour size (mean volume of the tumour) [1, 23]: 130 ± 6 cubic millimeters
- Tumour size (mean volume of the tumour) [1, 24]: 130 ± 8 cubic millimeters
- Tumour size (mean volume of the tumour) [1, 25]: 100 ± 7 cubic millimeters
- Tumour size (mean volume of the tumour) [1, 26]: 85 ± 4 cubic millimeters
- Tumour size (mean volume of the tumour) [1, 27]: 110 ± 4 cubic millimeters
- Tumour size (mean volume of the tumour) [1, 28]: 105 ± 4 cubic millimeters
- Tumour size (mean volume of the tumour) [1, 29]: 80 ± 5 cubic millimeters
- Tumour size (mean volume of the tumour) [1, 30]: 80 ± 7 cubic millimeters
- Tumour size (mean volume of the tumour) [1, 31]: 95 ± 6 cubic millimeters
- Tumour size (mean volume of the tumour) [1, 32]: 85 ± 6 cubic millimeters
- Tumour size (mean volume of the tumour) [1, 33]: 65 ± 3 cubic millimeters
- Tumour size (mean volume of the tumour) [1, 34]: 65 ± 9 cubic millimeters
- Tumour size (mean volume of the tumour) [2, 3]: 205 ± 3 cubic millimeters
- Tumour size (mean volume of the tumour) [2, 4]: 185 ± 6 cubic millimeters
- Tumour size (mean volume of the tumour) [2, 5]: 170 ± 7 cubic millimeters
- Tumour size (mean volume of the tumour) [2, 6]: 155 ± 4 cubic millimeters
- Tumour size (mean volume of the tumour) [2, 7]: 190 ± 4 cubic millimeters
- Tumour size (mean volume of the tumour) [2, 8]: 160 ± 7 cubic millimeters
- Tumour size (mean volume of the tumour) [2, 9]: 150 ± 6 cubic millimeters
- Tumour size (mean volume of the tumour) [2, 10]: 125 ± 5 cubic millimeters
- Tumour size (mean volume of the tumour) [2, 11]: 160 ± 4 cubic millimeters
- Tumour size (mean volume of the tumour) [2, 12]: 145 ± 7 cubic millimeters
- Tumour size (mean volume of the tumour) [2, 13]: 120 ± 6 cubic millimeters
- Tumour size (mean volume of the tumour) [2, 14]: 105 ± 4 cubic millimeters
- Tumour size (mean volume of the tumour) [2, 15]: 155 ± 6 cubic millimeters
- Tumour size (mean volume of the tumour) [2, 16]: 125 ± 5 cubic millimeters
- Tumour size (mean volume of the tumour) [2, 17]: 110 ± 5 cubic millimeters
- Tumour size (mean volume of the tumour) [2, 18]: 90 ± 9 cubic millimeters
- Tumour size (mean volume of the tumour) [2, 19]: 125 ± 5 cubic millimeters
- Tumour size (mean volume of the tumour) [2, 20]: 110 ± 5 cubic millimeters
- Tumour size (mean volume of the tumour) [2, 21]: 100 ± 5 cubic millimeters
- Tumour size (mean volume of the tumour) [2, 22]: 80 ± 8 cubic millimeters
- Tumour size (mean volume of the tumour) [2, 23]: 95 ± 5 cubic millimeters
- Tumour size (mean volume of the tumour) [2, 24]: 85 ± 6 cubic millimeters
- Tumour size (mean volume of the tumour) [2, 25]: 60 ± 6 cubic millimeters
- Tumour size (mean volume of the tumour) [2, 26]: 50 ± 7 cubic millimeters
- Tumour size (mean volume of the tumour) [2, 27]: 75 ± 6 cubic millimeters
- Tumour size (mean volume of the tumour) [2, 28]: 60 ± 5 cubic millimeters
- Tumour size (mean volume of the tumour) [2, 29]: 55 ± 5 cubic millimeters
- Tumour size (mean volume of the tumour) [2, 30]: 35 ± 8 cubic millimeters
- Tumour size (mean volume of the tumour) [2, 31]: 60 ± 3 cubic millimeters
- Tumour size (mean volume of the tumour) [2, 32]: 45 ± 6 cubic millimeters
- Tumour size (mean volume of the tumour) [2, 33]: 25 ± 7 cubic millimeters
- Tumour size (mean volume of the tumour) [2, 34]: 15 ± 10 cubic millimeters
